Experimental data from ChEMBL document CHEMBL1148710, “Alpha2-adrenoreceptors profile modulation. 3.1 (R)-(+)-m-nitrobiphenyline, a new efficient and alpha2C-subtype selective agonist” (J Med Chem, 2007).
Activity calls are given as the source filed them. The rule behind the calls is not given here.

What was measured:
[1] = target: T1, Alpha-2B adrenergic receptor (Homo sapiens) (UniProt P18089); test: (§1) Agonistic potency at human adrenergic alpha-2B receptor expressed in CHO cells assessed as forskolin-induced cAMP accumulation; format: functional, cell-based
T1 sequence (whole entry): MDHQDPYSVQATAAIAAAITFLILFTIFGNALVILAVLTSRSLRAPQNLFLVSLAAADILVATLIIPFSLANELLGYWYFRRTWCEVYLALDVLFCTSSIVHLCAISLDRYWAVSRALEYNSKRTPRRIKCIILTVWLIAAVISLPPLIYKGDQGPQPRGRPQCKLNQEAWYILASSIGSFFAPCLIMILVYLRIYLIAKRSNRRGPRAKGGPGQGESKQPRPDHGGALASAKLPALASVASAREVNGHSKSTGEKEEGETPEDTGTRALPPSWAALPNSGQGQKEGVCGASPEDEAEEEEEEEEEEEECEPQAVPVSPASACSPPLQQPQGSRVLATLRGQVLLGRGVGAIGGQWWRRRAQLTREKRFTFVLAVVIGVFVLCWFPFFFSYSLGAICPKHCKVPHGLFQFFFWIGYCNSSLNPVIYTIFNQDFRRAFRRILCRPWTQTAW

[2] = target: T2, Alpha-2C adrenergic receptor (Homo sapiens) (UniProt P18825); test: Intrinsic activity at human adrenergic Alpha-2C receptor expressed in CHO cells assessed as forskolin-induced cAMP accumulation relative to (-)- noradrenaline; format: functional, cell-based
T2 sequence (whole entry): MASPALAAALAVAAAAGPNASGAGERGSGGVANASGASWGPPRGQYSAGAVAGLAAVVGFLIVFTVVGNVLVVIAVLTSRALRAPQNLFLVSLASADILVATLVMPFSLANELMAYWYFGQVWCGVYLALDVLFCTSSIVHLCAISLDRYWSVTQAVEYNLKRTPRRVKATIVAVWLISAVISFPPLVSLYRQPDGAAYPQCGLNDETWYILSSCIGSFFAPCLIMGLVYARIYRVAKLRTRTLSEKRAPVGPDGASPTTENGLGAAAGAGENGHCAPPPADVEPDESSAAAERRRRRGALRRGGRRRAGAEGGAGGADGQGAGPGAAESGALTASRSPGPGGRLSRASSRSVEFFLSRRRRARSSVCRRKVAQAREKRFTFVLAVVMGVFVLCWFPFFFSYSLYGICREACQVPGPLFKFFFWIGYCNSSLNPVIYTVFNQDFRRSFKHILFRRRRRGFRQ

[3] = target: T1, Alpha-2B adrenergic receptor (Homo sapiens); test: Intrinsic activity at human adrenergic alpha2B receptor expressed in CHO cells assessed as forskolin-induced cAMP accumulation relative to (-)- noradrenaline; format: functional, cell-based
[4] = target: T3, Alpha-2A adrenergic receptor (Homo sapiens) (UniProt P08913); test: Intrinsic activity at human adrenergic alpha-2A receptor expressed in CHO cells assessed as forskolin-induced cAMP accumulation relative to (-)-noradrenaline; format: functional, cell-based
T3 sequence (whole entry): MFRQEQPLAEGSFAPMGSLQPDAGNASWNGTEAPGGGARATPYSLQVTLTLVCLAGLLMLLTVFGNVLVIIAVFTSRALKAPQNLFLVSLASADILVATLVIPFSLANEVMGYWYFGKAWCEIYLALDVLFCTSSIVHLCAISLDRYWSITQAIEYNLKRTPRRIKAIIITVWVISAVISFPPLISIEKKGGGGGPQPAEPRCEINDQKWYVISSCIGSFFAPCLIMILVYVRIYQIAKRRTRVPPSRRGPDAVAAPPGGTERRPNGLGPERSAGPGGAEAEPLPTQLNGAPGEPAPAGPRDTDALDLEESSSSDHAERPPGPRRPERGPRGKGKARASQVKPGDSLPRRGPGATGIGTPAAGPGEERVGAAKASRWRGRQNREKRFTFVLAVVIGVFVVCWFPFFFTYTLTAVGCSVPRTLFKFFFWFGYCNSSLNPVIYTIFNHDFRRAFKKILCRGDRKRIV

[5] = target: T4, Alpha-2C adrenergic receptor (Homo sapiens, UniProt P18825); test: biochemical
T4 sequence (P18825 whole entry): T2 sequence (whole entry)
Description: (§2) Displacement of [3H]RX 821002 from human adrenergic Alpha-2C receptor expressed in CHO cells

[6] = target: T4, Alpha-2C adrenergic receptor; test: Agonistic potency at human adrenergic Alpha-2C receptor expressed in CHO cells assessed as forskolin-induced cAMP accumulation; format: functional, cell-based
[7] = target: T5, Alpha-2A adrenergic receptor (Homo sapiens, UniProt P08913); test: Displacement of [3H]RX 821002 from human adrenergic alpha2A receptor expressed in CHO cells; format: cell-based
T5 sequence (P08913 whole entry): T3 sequence (whole entry)

[8] = target: T6, Alpha-2B adrenergic receptor (Homo sapiens, UniProt P18089); test: Displacement of [3H]RX 821002 from human adrenergic alpha-2B receptor expressed in CHO cells; format: cell-based
T6 sequence (P18089 whole entry): T1 sequence (whole entry)

[9] = target: T1, Alpha-2B adrenergic receptor (Homo sapiens); test: Antagonistic potency at human adrenergic alpha-2B receptor expressed in CHO cells assessed as forskolin-induced cAMP accumulation; format: functional, cell-based
[10] = target: T3, Alpha-2A adrenergic receptor (Homo sapiens); conditions: CHO
Description: Antagonistic potency at human adrenergic alpha2A receptor expressed in CHO cells assessed as forskolin-induced cAMP accumulation

[11] = target: T2, Alpha-2C adrenergic receptor (Homo sapiens); conditions: CHO
Description: as §2

[12] = target: T4, Alpha-2C adrenergic receptor; test: Displacement of [3H]RX 821002 from human adrenergic alpha-2c receptor expressed in CHO cells in presence of GppNHp/Na; format: cell-based
[13] = target: T6, Alpha-2B adrenergic receptor; test: as §1; format: functional, cell-based
[14] = target: T5, Alpha-2A adrenergic receptor; test: Agonistic potency at human adrenergic alpha-2A receptor expressed in CHO cells assessed as forskolin-induced cAMP accumulation

Row | Structure (SMILES) | Activity [1] | Intrinsic activity [2] | Intrinsic activity [3] | Intrinsic activity [4] | Ki [5] [µM] | EC50 ([6]; read-out: Log EC50 (converted)) [µM] | Ki [7] [µM] | Ki [8] [µM] | pKb [9] | pKb [10] | pKiH [11] | pKiL [11] | EC50 ([6]; read-out: EC50) [µM] | Ki [12] [µM] | EC50 [13] [µM] | EC50 [14] [µM]
1 | CC(Oc1ccccc1-c1cccc([N+](=O)[O-])c1)C1=NCCN1 (racemic) | inactive | 0.6 | < 0.3 | < 0.3 | – | – | – | – | – | – | – | – | – | – | – | –
2 | CC(Oc1ccccc1-c1ccccc1)C1=NCCN1 (racemic) | – | 0.8 | 0.5 | 0.7 | – | – | – | – | – | – | – | – | – | – | – | –
3 | C[C@H](Oc1ccccc1-c1cccc([N+](=O)[O-])c1)C1=NCCN1 | – | 0.45 | – | – | 0.537 | 0.741 | 0.0724 | 1.58 | 5.93 | 7.35 | – | – | – | – | – | –
4 | CC(Oc1ccccc1-c1cccnc1)C1=NCCN1 (racemic) | – | 1 | 0.5 | 0.5 | – | – | – | – | – | – | – | – | – | – | – | –
5 | C[C@@H](Oc1ccccc1-c1cccc([N+](=O)[O-])c1)C1=NCCN1 | – | 0.8 | – | – | 0.257 | 0.01 | 0.0813 | 0.741 | 6.07 | 7.11 | 8.21 | 6.42 | 0.038 | 0.363 | – | –
6 | CC(Oc1ccccc1-c1cccc(F)c1)C1=NCCN1 (racemic) | inactive | 1.15 | < 0.3 | 0.58 | – | – | – | – | – | – | – | – | – | – | – | –
7 | CC(Oc1ccccc1-c1cccc(O)c1)C1=NCCN1 (racemic) | – | 1.15 | 0.5 | < 0.3 | – | – | – | – | – | – | – | – | – | – | – | –
8 | C[C@@H](Oc1ccccc1-c1ccccc1)C1=NCCN1 | – | 0.7 | 0.4 | 0.4 | 0.977 | 0.112 | 0.186 | 1.26 | – | – | – | – | – | – | 100 | 28.8
9 | C[C@H](Oc1ccccc1-c1ccccc1)C1=NCCN1 | – | 0.9 | 0.65 | 0.8 | 0.302 | 0.0186 | 0.0912 | 0.589 | – | – | – | – | – | – | 0.692 | 0.0741
10 | Cc1cccc(C(C)c2c[nH]cn2)c1C (single isomer, unassigned) [DEXMEDETOMIDINE] | – | – | – | – | – | – | – | – | – | – | 10 | 8.26 | – | 0.0309 | – | –
